Experimental data from patent publication EP0334967B1, “KERATOSIS-TREATING AGENT” (priority 1987, dated 1989).
Like-named read-outs stand apart in the source and are kept apart here.

Key:
balb/c 3T3 cells = assay: Inhibitory action to EGF stimulated cell growth (3H-thymidine incorporation); type: cell-based; conditions: 16 hours + 8 hours 3H-thymidine
Procedure: A culture medium (hereinafter referred to as "CS DMEM") containing 10% of calf serum, which was prepared so that 2.5 x 10⁴ of fibroblasts (balb/c 3T3 cells) were contained in 0.5 ml, was added in a 24-well plate in an amount of 0.5 ml per well. After the fibroblasts were confluent in the state of a single layer, the culture medium was replaced with the same amount of 1% CS DMEM and the cells were incubated at 37°C for 12 hours in a humidified atmosphere of 95% air-5% CO₂. Then, 1 µg/25 µl/well of trans-(6)-shogaol and 5 ng/25 µl/well of EGF (supplied by Collaborative Research, Inc.) were added, and the cells were further incubated for 16 hours. Then, 0.5 µCi(1.85+10⁻¹⁶S⁻¹)/50 µl of ³H-thymidine was added and the cells were further incubated 8 hours. The culture medium was removed, and the cells were washed with a cold phosphate buffered saline. […] The radioactivity of ³H-thymidine included in the cells by this growth was measured, and the action of trans-(6)-shogaol to the growth of the cells was examined.
10% CS DMEM prepared so that 2.5 x 10⁴ of fibroblasts (balb/c 3T3 cells) were contained in 0.5 ml were added in a 24-well plate in an amount of 0.5 ml/well. […] The radioactivity of ³H-thymidine included in the cells by this growth was measured, and the function of cis-(6)-shogaol to the growth of the cells was examined.

Acute toxicity test = assay: Acute toxicity test; parameters: species or system mice; conditions: mouse, in vivo
Procedure: (§1) The acute toxicity test of cis-(6)-shogaol was carried out by using male mice of the ICR line.

5-lipoxygenase = target: T1, 5-lipoxygenase (Rattus norvegicus, UniProt P12527); assay: 5-Lipoxygenase-inhibiting action (5-HETE formation, enzyme from RBL-1 cultured cells); type: biochemical; conditions: 5-lipoxygenase from RBL-1 cells, 10 µM arachidonic acid, 37°C 10 minutes; tested at 5, 1 or 0.5 µM
T1 construct: The supernatant was used as the standard enzyme of 5-lipoxygenase; endogenous in cells; host or cells: RBL-1 cultured cells, sonicated; 105,000 x G supernatant
T1 sequence (P12527 1-673): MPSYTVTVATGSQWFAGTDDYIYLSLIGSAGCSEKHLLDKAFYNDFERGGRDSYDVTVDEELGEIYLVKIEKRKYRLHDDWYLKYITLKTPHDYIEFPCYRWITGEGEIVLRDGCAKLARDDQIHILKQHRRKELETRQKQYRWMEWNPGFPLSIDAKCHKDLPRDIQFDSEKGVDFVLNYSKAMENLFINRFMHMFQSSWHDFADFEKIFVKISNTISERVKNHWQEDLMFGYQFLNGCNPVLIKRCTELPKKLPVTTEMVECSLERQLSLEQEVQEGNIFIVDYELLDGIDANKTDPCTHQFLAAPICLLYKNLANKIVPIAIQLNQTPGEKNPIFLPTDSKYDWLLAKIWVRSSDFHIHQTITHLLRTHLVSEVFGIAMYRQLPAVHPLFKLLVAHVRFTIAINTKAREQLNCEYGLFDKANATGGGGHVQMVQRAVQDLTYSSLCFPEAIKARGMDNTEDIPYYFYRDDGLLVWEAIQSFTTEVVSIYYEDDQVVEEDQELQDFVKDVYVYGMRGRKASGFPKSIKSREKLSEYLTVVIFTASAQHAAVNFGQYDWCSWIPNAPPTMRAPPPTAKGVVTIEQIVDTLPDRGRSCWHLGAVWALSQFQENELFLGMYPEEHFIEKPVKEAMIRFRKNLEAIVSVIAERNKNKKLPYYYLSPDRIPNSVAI
Procedure: RBL-1 cultured cells were suspended in a 50 mM phosphate buffer solution (pH 7.4) containing 1 mM EDTA and 10% ethylene glycol so that the cell concentration was 5 x 10⁶ per ml, and the cell suspension was subjected to an ultrasonic wave treatment. Then, centrifugal separation was carried out under 10,000 x G for 10 minutes and then under 105,000 x G for 60 minutes. The supernatant was used as the standard enzyme of 5-lipoxygenase.
A test tube was charged with a 50 mM phosphate buffer solution, 1.5 mM calcium chloride, 20 µM indomethacin, 18 mM glutathione, 6 mM ATP, 10 µM arachidonic acid, the obtained standard enzyme, and an ethanol solution of cis-(6)-shogaol, to a total volume of 0.6 ml and a final concentration of 5, 1 or 0.5 µM, and a reaction was carried out at 37°C for 10 minutes. […] The amount of 5-HETE in the liquid measured by the high-speed liquid chromatography [column = TSK-gel ODS-80TM (supplied by Toso), moving phase = acetonitrile/water/ acetic acid (60/40/0.02), flow rate = 1 ml/min, detection = ultraviolet ray (235 nm)], and the obtained value was designated as the enzyme activity. The inhibition ratio at each concentration was calculated by the following formula, and the concentration giving an inhibition ratio of 50% (hereinafter referred to as "IC₅₀") was determined. […]

cyclooxygenase = assay: Cyclooxygenase-inhibiting action (PGE2 formation, rabbit kidney marrow microsome fraction); type: biochemical; conditions: cyclooxygenase from rabbit kidney marrow microsomes, [1-14C] arachidonic acid, 37°C 15 minutes; tested at 40, 20, 10 or 5 µM
Procedure: To 7.0 g of rabbit kidney marrow was added 60 ml of a 0.1M phosphate buffer solution (pH 7.5) containing 1 mM glutathione, and the mixture was homogenized by using a polytrone. The homogenate was subjected to the centrifugal separation under. 105,000 x G for 60 minutes to obtain a microsome fraction, and the fraction was dissolved in 7 ml of a 0.1M phosphate buffer solution (pH 7.5) containing 1 mM glutathione to obtain a standard enzyme of cyclooxygenase.
To 15 µl of the obtained standard enzyme were added 4 mM glutathione, 10 mM tryptophan, 0.25 µM hemoglobin, and a phosphate buffer solution (pH 7.5), each concentration being the final concentration, and [1-¹⁴C] arachidonic acid (5 x 10⁴ dpm) and cis-(6)-shogaol were added to a final concentration of 40, 20, 10 or 5 µM and a total volume of 200 µl. Incubation was carried out at 37 °C for 15 minutes, and 1N hydrochloric acid was added to stop the reaction. Prostaglandin E₂ (PGE₂) was added as the carrier and the reaction product was extracted with 2 ml of ether. […] Coloration was effected with an iodine vapor, the portion corresponding of […] was scratched out, and the radioactivity of PGE₂ was measured by a liquid scintillation counter. The inhibition ratio at each concentration was calculated according to the following formula, and the 1C₅₀ was determined. […]

[1] = tested on: male mice of the ICR line; assay: Acute toxicity test; conditions: mouse, in vivo, po, 500 mg/kg
Procedure: as §1

CCCCC/C=C/C(=O)CCc1ccc(O)c(OC)c1 [trans-(6)-shogaol, 1(4-hydroxy-3-methoxyphenyl)-(E)-4-decen-3-one]
growth inhibited, balb/c 3T3 cells the growth of which was promoted by EGF (balb/c 3T3 cells; Experiment 1: 1 µg/25 µl/well compound, 5 ng/25 µl/well EGF): 52.7% | LD50 (Acute toxicity test; iv): 50.9 mg/kg | LD50 (Acute toxicity test; oral administration, Litchfield-Wilcoxon method, male ICR mice, read-out: LD50): 687 mg/kg

CCCCC/C=C\C(=O)CCc1ccc(O)c(OC)c1 [cis-(6)-shogaol]
growth inhibited, balb/c 3T3 cells the growth of which was promoted by EGF (balb/c 3T3 cells; Experiment 4: 0.5 µg/12.5 µl/well compound, 50 pg/25 µl/well mouse EGF): 63.9% | IC50 (5-lipoxygenase): 0.83 µM | IC50 (cyclooxygenase): 11.7 µM | mortality [1]: none of the mice died
